# In patent US20180128815A1, “METHOD OF SCREENING AN AGENT FOR INHIBITING RECURRENCE OR METASTASIS OF BREAST CANCER” (GACHON UNIVERSITY OF INDUSTRY-ACADEMIC COOPERATION …, priority 2014, published 2018):
# How the values were obtained:
# Type in all cases: cell-based
# [1] = tested on: 4T1 murine breast cancer cell line (suspending culture, cancer stem cells); assay: RTQ-PCR of stem cell marker genes in suspension-cultured 4T1 cells with or without Wnt signaling inhibitor; conditions: 1 μM applied 4 times, once in two days, 8 days suspending culture
# Procedure: Then, the 4T1 murine breast cancer cell line was added with a DMEM medium containing 20 ng/mL of EGF, 20 ng/mL of bFGF, 4 μg/mL of heparin, and B27, and cultured via suspending culture at 37° C. with […] for 7 days to obtain a culture product in a spherical form.
# First, 4T1 murine breast cancer cell line was cultured via the suspending culturing method in the same manner as in Example 1-1 for 8 days under the condition of with or without the treatment of the Wnt signaling inhibitor (CWP232228, JW Pharmaceutical, Korea). In particular, the Wnt signaling inhibitor was applied a total of 4 times once in two days at a concentration of 1 μM.
# Then, the thus obtained culture products were subjected to RNeasy Plus Mini Kit (Qiagen Inc, Valencia, Calif.) and the total RNA was extracted from each of the culture products. The thus-extracted each of the total RNA was subjected to random hexamer and ReverAid H Minus First Strand cDNA Synthesis Kit (Thermo scientific) to synthesize their respective cDNAs. […] The data obtained via RTQ-PCR was analyzed and, based on the 2-deltadelta ct values among the respective cells cultured, the genes with at least a 2-fold difference and a P value<0.05 were selected. […]
# [2] = tested on: MCF7 human breast cancer cell line; assay: IGF1 immunofluorescence staining, MCF7 cells with or without Wnt signaling inhibitor
# Procedure: (§1) In order to confirm the expression level of IGF1 gene, one of the five genes discovered above, within a cell, the 4T1 murine breast cancer cell line and MCF7 human breast cancer cell line were cultured via adhesion culture method and suspending culture method in the same manner as in Example 1 under the condition of with or without the treatment of the Wnt signaling inhibitor (CWP232228, JW Pharmaceutical, Korea) and thereby obtained the respective culture products.
# (§2) The thus obtained respective culture products were added with mouse anti-IGF1 antibodies (Milipore, cat. #05-172) to perform a primary reaction, and then added with anti-mouse IgG antibodies (Invitrogen cat.A11001) to perform a secondary reaction, thereby performing an immunofluorescence staining regarding the IGF1 gene, which was observed under an optical microscope (Zeiss LSM 510) and the expression level of IGF1 was measured (FIG. 3).
# [3] = tested on: 4T1 murine breast cancer cell line; assay: IGF1 immunofluorescence staining, 4T1 cells with or without Wnt signaling inhibitor
# Procedure: as §1, §2
# [4] = adhesion culture, regardless of treatment
# [5] = suspending culture (cancer stem cells)
smiles,measurement,setting,value
C=CCN1CC(=O)N2[C@@H](Cc3ccc(OP(=O)([O-])[O-])cc3)C(=O)N(Cc3cccc4cn(C)nc34)C[C@@H]2N1C(=O)NCc1ccccc1.[Na+].[Na+] [CWP232228],"difference in expression of IGF1, Id2, MMP2, MMP9 and Wnt5a genes (2-deltadelta ct, Stem cell PCR array) treated vs untreated",[1]; P value<0.05,≥ 2 fold
same,"expression of IGF1, Id2, MMP2, MMP9 and Wnt5a genes by RTQ-PCR with specific primers (FIG. 2)",[1]; treated vs untreated,significant difference in their expression
same,"IGF1 gene expression (immunofluorescence, FIG. 3)",[2]; [4],not expressed
same,"level of IGF1 gene expression (immunofluorescence, FIG. 3)",[2]; [5],deceased
same,"IGF1 gene expression (immunofluorescence, FIG. 3)",[3]; [4],not expressed
same,"level of IGF1 gene expression (immunofluorescence, FIG. 3)",[3]; [5],deceased
